Results on two compounds are retold here after patent publication US8518889B2, “Method of treating cancer with antibodies against long-form leukotriene B4 receptor BLT2” (Korea University Research & Business Foundation, priority 2007, dated 2013).

The subject of one test is eosinophil membranes. Particulars: read-out: IC50, inhibits the binding of radiolabeled LTB4 to eosinophil membranes; cited from earlier work.
Another test concerns MCF-7 cells. The test is described as follows: Western blot analysis of PARP and caspase-9. The test is classed as cell-based, human. The note with it: LY255283 10 μM, epirubicin 100 ng/ml. For orientation: Immunoblotting shows a protein as a band on a membrane.
A further test deals with SV-HUC-1 cells. Description: cell cycle analysis (PI, flow cytometry). The test is classed as cell-based. Particulars: 48 hr, RPMI 1640 with 0.5% FBS. As for the experimental part:
The cells grown in 6-well plate were stimulated with 5 μM and 10 μM LY255283, 1 μM U75302 for 48 h in RPMI 1640 containing 0.5% FBS. The cells which were collected by brief trypsinization were fixed overnight with 70% ethanol at 4° C. The cells were resuspended in PBS containing RNase A (100 μg/ml) and incubated for 30 min at 37° C. The cells were stained with propidium iodide (50 μg/ml) (Sigma). Acquisition and analysis was performed by FACS using Cell Quest Alias software (BD Bioscience). […] Cells were treated with BLT antagonist for 48 hours and the cell cycle population was measured by flow cytometry. In brief, cells were plated in 6 well plate and then treated with LY255283, U75302 for 48 hr. At the end of the treatment, the cells were harvested and then centrifuged. The cells fixed in ice-cold 70% ethanol for 24 hr and centrifuged. The pellet were resuspended in 0.5 ml phosphate-buffered saline (PBS) and incubated with Pl 1 mg/ml treatment for 15 min.
(In flow cytometry, cells or beads pass a laser one at a time.)

What is called IC50 is the concentration needed to halve the response being measured. As for `CCc1cc(C(C)=O)c(O)cc1OCCCCCC(C)(C)c1nnn[nH]1` [LY255283, 1-[5-ethyl-2-hydroxy-4-[[6-methyl-6-(1H-tetrazol-5-yl)heptyl]oxy]phenyl]-ethanone], the IC50 in the test with eosinophil membranes is 260 nM. Besides, in the test on MCF-7 cells, the PARP cleavage entry is on record as “PARP cleavage was detectable”.

On to `CCCCC/C=C\C[C@@H](O)/C=C/c1cccc(C[C@@H](O)CCCCO)n1` [U75302], for which the cell cycle result in the test with SV-HUC-1 cells was “not effect”.
